Laboratory results: patent US20220380341A1, “INHIBITORS OF HIV-1 NEF FOR THE TREATMENT OF HIV DISEASE” (priority 2018, published 2022)
Where “and” joins values, the source holds several entries; their conditions need not be identical. Equal values may be shown once. Read-outs that look alike come from different tables or passages of the source.

How the values were obtained:
HIV-1NL4-3 = test: HIV-1 infectivity assay in TZM-bl reporter cell line (LTR-luciferase, 48 h); type: cell-based; conditions: for inhibition at 1 µM: Human immunodeficiency virus 1, TZM-bl
Method in brief: (§1)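 Luciferase read-out 48 h post-infection; compound at 1 μM during HIV-1NL4-3 infection of TZM-bl cells. Percent inhibition scaled to DMSO wild-type virus (0%) and DMSO Nef-defective virus (100% of Nef-dependent effect). Viability checked separately in uninfected cells by Cell Titer Blue.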

TZM-bl cell line = type: cell-based; conditions: human, 1 μM
Method in brief: as §1

HIV-1 NefNL4-3 = HIV-1 NefNL4-3 (Human immunodeficiency virus type 1 group M subtype B, UniProt P03406, A33V/T15A/T51N/V11I); test: Surface plasmon resonance binding to recombinant full-length Nef (NL4-3); conditions: for RU30/RUNef (extent of binding): response units at 30 μM relative to Nef immobilized on the SPR chip
[1] = 1.0 μM, TZM-bl reporter cell line, Table 4, read-out: % Infectivity Inhibition
[2] = 48 h, Table 1, TZM-bl cells, 1 μM, 48 h, 100% = Nef-defective HIV-1, read-out: HIV-1 Infectivity % Inhibition Norm. to Δ-Nef @ 1 μM
[3] = KD, M, Table 4, SPR fit 1:1 Langmuir, KD = koff/kon
[4] = Table 4, 1:1 Langmuir fit, T = 1/koff
[5] = KD, M, Table 4, SPR fit 2-step induced fit, KD = koff/kon × koff2/(koff2 + kon2)
[6] = Nef NL4-3 Binding, SPR 2-state fitting KD, Table 1, 2-step induced-fit model
[7] = Table 4, 2-step induced fit, T = 1/koff2
[8] = read-out: Nef NL4-3 Binding, SPR 1:1 or 2-site fitting KD2, Table 1, 2-site fit, second component

Structure (SMILES)	inhibition at 1 µM (HIV-1NL4-3; [1]) [%]	inhibition at 1 µM (HIV-1NL4-3; [2]) [%]	% Cell Viability (TZM-bl cell line) [%]	Percent Viability @ 1 μM (TZM-bl cells) (TZM-bl cell line) [%]	Kd (HIV-1 NefNL4-3)	Kd (HIV-1 NefNL4-3; [3]) [µM]	T, minutes (residence time) (HIV-1 NefNL4-3; [4])	RU30/RUNef (extent of binding) (HIV-1 NefNL4-3)	Kd (HIV-1 NefNL4-3; [5]) [µM]	Kd (HIV-1 NefNL4-3; [6]) [µM]	T, minutes (residence time) (HIV-1 NefNL4-3; [7])	Kd (HIV-1 NefNL4-3; [8]) [µM]	Nef NL4-3 Binding, SPR 1:1 or 2-site fitting KD1 (HIV-1 NefNL4-3; Table 1, 1:1 Langmuir fit where the KD2 cell says '1 to 1 fitting', else 2-site fit)	HIV-1 Infectivity % Inhibition Norm. to Δ-Nef @ 1 μM (HIV-1NL4-3; Table 1, TZM-bl cells, 1 μM, 48 h, 100% = Nef-defective HIV-1) [%]	Kd (HIV-1 NefNL4-3; Nef NL4-3 Binding, SPR 1:1 or 2-site fitting KD2, Table 1, 2-site fit, second component) [µM]
Oc1c(CCc2ccc(F)cc2)c(-c2ccc(C(F)(F)F)cn2)nn1-c1nc2cccnc2[nH]1 [Compound I-302, 4-[2-(4-fluorophenyl)ethyl]-1-{3H-imidazo[4,5-b]pyridin-2-yl}-3-[5-(trifluoromethyl)pyridin-2-yl]-1H-pyrazol-5-ol]	0	-2.4	98.9	98.9	3.61 µM	3.61	8.82E + 00 minutes	1.66E- 03							
Cc1ccn(CCc2c(-c3ccc(C(F)(F)F)cc3)nn(-c3nc4cccnc4[nH]3)c2O)n1 [Compound I-303, 1-{3H-imidazo[4,5-b]pyridin-2-yl}-4-[2-(3-methyl-1H-pyrazol-1-yl)ethyl]-3-[4-(trifluoromethyl)phenyl]-1H-pyrazol-5-ol]	40.1	40.6	98.3	98.3	0.396 µM	0.396	9.47E + 01 minutes	3.06E- 03							
Oc1c(CCC2CCOCC2)c(-c2cccc(F)c2)nn1-c1nc2cccnc2[nH]1 [Compound I-304, 3-(3-fluorophenyl)-1-{3H-imidazo[4,5-b]pyridin-2-yl}-4-[2-(oxan-4-yl)ethyl]-1H-pyrazol-5-ol]	0	-2	98.7	98.7	0.138 µM			5.25E- 03	3.15	3.15	1.25E + 01 minutes	40.3			
CS(=O)(=O)c1cccc(-c2nn(-c3nc4cccnc4[nH]3)c(O)c2CCC2CCOCC2)c1 [Compound I-305, 1-{3H-imidazo[4,5-b]pyridin-2-yl}-3-(3-methanesulfonylphenyl)-4-[2-(oxan-4-yl)ethyl]-1H-pyrazol-5-ol]	59.3	59.3	96.8	96.8	0.744 µM	0.744	1.13E + 01 minutes	2.13E- 03							
O=C(OCc1ccccc1)N1CCC(c2nn(-c3nc4cccnc4[nH]3)c(O)c2CCc2ccc(F)cc2)CC1 [Compound I-306, benzyl 4-{4-[2-(4-fluorophenyl)ethyl]-5-hydroxy-1-{3H-imidazo[4,5-b]pyridin-2-yl}-1H-pyrazol-3-yl}piperidine-1-carboxylate]	0	-5.2	95.7	95.7	0.0136 µM			9.61E- 03	0.731	0.731	3.52E + 01 minutes	5.43			
Oc1c(CCc2ccc(F)cc2)c(CCCc2ccc(F)cc2)nn1-c1nc2cccnc2[nH]1 [Compound I-307, 4-[2-(4-fluorophenyl)ethyl]-3-[3-(4-fluorophenyl)propyl]-1-{3H-imidazo[4,5-b]pyridin-2-yl}-1H-pyrazol-5-ol]	47.5	47.5	98.2	98.2	0.89 µM	0.89	1.14E + 01 minutes	6.84E- 03							
O=C(OCc1ccccc1)N1CCC(c2nn(-c3nc4ccncc4[nH]3)c(O)c2CCc2ccc(F)cc2)CC1 [Compound I-310, benzyl 4-{4-[2-(4-fluorophenyl)ethyl]-5-hydroxy-1-{3H-imidazo[4,5-c]pyridin-2-yl}-1H-pyrazol-3-yl}piperidine-1-carboxylate]	36.6	36.6	100	105.6	0.0502 µM	0.0502	3.56E + 02 minutes	2.36E- 03							
CS(=O)(=O)c1cccc(-c2nn(-c3nc4cccnc4[nH]3)c(O)c2CCc2ccc(F)cc2)c1 [Compound I-311, 4-[2-(4-fluorophenyl)ethyl]-1-{3H-imidazo[4,5-b]pyridin-2-yl}-3-(3-methanesulfonylphenyl)-1H-pyrazol-5-ol]		29.8		94.5	1.01 µM										
Oc1c(CC2CCOCC2)c(C2CCOCC2)nn1-c1nc2cccnc2[nH]1 [Compound I-312, 1-{3H-imidazo[4,5-b]pyridin-2-yl}-3-(oxan-4-yl)-4-[(oxan-4-yl)methyl]-1H-pyrazol-5-ol]		-33.7		100.1									No Interaction		
Oc1c(CC2CCOCC2)c(-c2ccc(F)cc2)nn1-c1nc2cccnc2[nH]1 [Compound I-313, 3-(4-fluorophenyl)-1-{3H-imidazo[4,5-b]pyridin-2-yl}-4-[(oxan-4-yl)methyl]-1H-pyrazol-5-ol]	33.2	33.2	96.7	96.7	0.48 µM	0.48	2.92E + 01 minutes	5.15E- 03							
Oc1c(CCc2ccc(F)cc2)c(C2CCOCC2)nn1-c1nc2cccnc2[nH]1 [Compound I-314, 4-[2-(4-fluorophenyl)ethyl]-1-{3H-imidazo[4,5-b]pyridin-2-yl}-3-(oxan-4-yl)-1H-pyrazol-5-ol]	0	-1	100	100.1	0.705 µM	0.705	1.79E + 01 minutes	2.97E- 03							
Oc1c(CC2CCOCC2)c(C2CC2)nn1-c1nc2cccnc2[nH]1 [Compound I-315, 3-cyclopropyl-1-{3H-imidazo[4,5-b]pyridin-2-yl}-4-[(oxan-4-yl)methyl]-1H-pyrazol-5-ol]		28.5		100.6	1.88 µM										
Oc1c(CC2CCOCC2)c(C2CC(F)(F)C2)nn1-c1nc2cccnc2[nH]1 [Compound I-316, 3-(3,3-difluorocyclobutyl)-1-{3H-imidazo[4,5-b]pyridin-2-yl}-4-[(oxan-4-yl)methyl]-1H-pyrazol-5-ol]	32.8		99.7			4.49	5.19E + 00 minutes	1.19E- 03							
Cn1c(-n2nc(-c3ccc(C(F)(F)F)cc3)c(CCc3ccc(F)cc3)c2O)nc2ccccc21 [Compound I-401, 4-[2-(4-fluorophenyl)ethyl]-1-(1-methyl-1H-1,3-benzodiazol-2-yl)-3-[4-(trifluoromethyl)phenyl]-1H-pyrazol-5-ol]	99.6		86.4		1.89 µM and 0.237 µM			2.01E- 02	78.4		1.45E + 03 minutes	18.1		52.3	2.47
Cn1c(-n2nc(-c3ccc(S(C)(=O)=O)cc3)c(CCc3ccc(F)cc3)c2O)nc2ccccc21 [Compound I-403, 4-[2-(4-fluorophenyl)ethyl]-3-(4-methanesulfonylphenyl)-1-(1-methyl-1H-1,3-benzodiazol-2-yl)-1H-pyrazol-5-ol]	4.1	4.1	99.9	99.9	2.4 µM	2.4	3.63E + 00 minutes	2.88E- 03							
CCOC(=O)c1nn(-c2nc3ccccc3[nH]2)c(O)c1CCc1ccc(F)cc1 [Compound I-404, ethyl 1-(1H-1,3-benzodiazol-2-yl)-4-[2-(4-fluorophenyl)ethyl]-5-hydroxy-1H-pyrazole-3-carboxylate]		1.3		100.5	0.128 µM										
Cn1c(-n2nc(-c3cccc(S(C)(=O)=O)c3)c(CCc3ccc(F)cc3)c2O)nc2ccccc21 [Compound I-405, 4-[2-(4-fluorophenyl)ethyl]-3-(3-methanesulfonylphenyl)-1-(1-methyl-1H-1,3-benzodiazol-2-yl)-1H-pyrazol-5-ol]	0	-9.6	95.7	95.7	4.39 µM	4.39	2.32E + 00 minutes	3.25E- 03							
